{"source": "patent US20050208101A1", "about": "“Coating composition for an implantable medical device and method for coating such a device” (priority 2002, published 2005)", "test_system": "Human embryonic fibroblasts", "assay": "Cell proliferation test with extracts of Elastollan films (Giemsa stain, optical density 620 nm)", "format": "cell-based", "conditions": "extracts obtained in Eagle's medium 37° C. 3 h; cells incubated 72 h; mitomycin C 20 μg/ml for 2 h", "description": "Elastollan films containing 0.1 and 0.5% by weight shikonin, and Elastollan films without shikonin, were tested.\nHuman embryonic fibroblasts were employed in these experiments. The cells were cultivated in Eagle's medium with the addition of 10% fetal calf serum and passaged twice a week using a trypsin-EDTA solution. The cells present after the 14th passage were used for the tests.\nMitomycin C dissolved in culture medium in a concentration of 20 μg/ml was used as […] control.\nExtracts from Elastollan films without shikonin, Elastollan films with 0.1% by weight and 0.5% by weight shikonin (based on polyurethane), and shikonin alone, were tested.\nExtracts were obtained by incubating dishes covered by the polymers to be tested (i.e. Elastollan films without or with shikonin) with Eagle's medium at 37° C. for 3 h. Undissolved solids were removed by filtering. The control with shikonin only (in the culture medium) was cultivated under the same conditions. […]\nThe stain retained by the cells was eluted with a phosphate buffer/alcohol mixture (1:1) at room temperature for 15 min. The optical density of the resulting solutions was determined by a spectrophotometer with a wavelength of 620 nm."}
{"smiles": "CO[C@@]12[C@H](COC(N)=O)C3=C(C(=O)C(C)=C(N)C3=O)N1C[C@@H]1N[C@@H]12", "note": "[mitomycin C, Mitomycin C]", "values": [{"measurement": "cell growth of fibroblasts after exposure to the tested extract", "result": "no cell growth was observed"}]}
